Laboratory results from patent publication US9296746B2, “Heterocyclic compound” (TAKEDA PHARMACEUTICAL COMPANY LIMITED, priority 2012, dated 2016).

Experiments:
[1] = molecular target: T1, human CH24H (Homo sapiens, UniProt Q9Y6A2); test: Measurement of CH24H inhibitory activity (24-HC produced from [14C] cholesterol by human CH24H lysate); type: biochemical; conditions: test compound 1 μM, [14C] cholesterol 15 μM, 37° C., 5 hr, read-out: Inhibitory Rate (%) in 1 μM
T1 construct: Using Full-Length Mammalian Gene Collection No. 4819975 (Invitrogen) as a template; made in house; host or cells: FreeStyle 293-F cells (transient transfection); cell lysate supernatant, not purified
T1 sequence (Q9Y6A2 whole entry): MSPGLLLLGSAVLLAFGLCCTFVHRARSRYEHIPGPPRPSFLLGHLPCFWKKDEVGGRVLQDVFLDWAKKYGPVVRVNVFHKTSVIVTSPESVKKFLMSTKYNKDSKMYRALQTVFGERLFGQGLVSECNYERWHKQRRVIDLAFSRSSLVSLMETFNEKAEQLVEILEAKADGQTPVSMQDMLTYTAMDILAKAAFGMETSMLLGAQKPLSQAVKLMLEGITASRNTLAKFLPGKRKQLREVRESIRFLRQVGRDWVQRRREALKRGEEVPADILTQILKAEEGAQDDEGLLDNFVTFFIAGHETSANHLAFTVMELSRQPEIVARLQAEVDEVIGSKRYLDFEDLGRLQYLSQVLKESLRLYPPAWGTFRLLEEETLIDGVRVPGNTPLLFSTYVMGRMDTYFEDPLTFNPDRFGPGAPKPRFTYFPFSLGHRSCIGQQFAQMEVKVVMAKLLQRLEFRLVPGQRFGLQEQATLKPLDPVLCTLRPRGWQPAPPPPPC
Method: The expression of human CH24H was performed using FreeStyle 293 Expression System (Invitrogen). According to the manual attached to FreeStyle 293 Expression System and using the plasmid DNA for human CH24H expression (pcDNA3.1(+)/hCH24H) constructed in Experimental Example 1, a transient expression using FreeStyle 293-F cell was performed. After transfection, the cells were cultured at 37° C., 8% CO2 with shaking at 125 rpm for 2 days. The cells were collected by centrifugation, and suspended in a suspension buffer (100 mM potassium phosphate (pH 7.4), 0.1 mM EDTA, 1 mM DTT, 20% Glycerol). The suspended product was disrupted by a polytron homogenizer (manufactured by Kinematica), and centrifuged at 9000×g for 10 min, and the supernatant was collected. The collected supernatant was cryopreserved (−80° C.) as a human CH24H lysate standard product.
For the measurement of CH24H inhibitory activity, using the human CH24H lysate prepared in Experimental Example 2, the amount of 24-HC produced from cholesterol by catalytic activity of CH24H was measured in the presence of a test compound, and compared with that measured in the absence of the test compound. That is, a test compound solution at various concentrations was mixed with a reaction buffer (50 mM potassium phosphate containing 0.1% BSA and Complete, EDTA-free, pH 7.4) and human CH24H lysate. Then, [^14C] cholesterol (53 mCi/mmol specific activity, 15 μM) was added, and CH24H reaction was performed at 37° C. for 5 hr. After completion of the reaction, a quenching solution consisting of chloroform/methanol/distilled water (2:2:1 v/v) was added, and the resulting 24-HC was extracted by shaking. The extract was applied to silica gel thin layer chromatography (ethyl acetate:toluene=4:6), and the obtained ^14C-24HC fraction was measured with BAS2500 (Fujifilm Corporation).
The inhibitory rate (%) was calculated from the ratio of radioactivity in the presence of a test compound relative to the radioactivity in the absence of the test compound.

[2] = test system: APP transgenic mouse (Tg2576); test: Novel object recognition test using an APP transgenic mouse (Tg2576); type: in vivo, Tg2576 mice; conditions: 3 mg/mL suspension at 10 mL/kg orally once a day for 6 weeks
Method: Animals used were 6-week-old Tg2576 mice and their wild-type mice (10 mice/group). A test compound was suspended in a 0.5% aqueous methyl cellulose [133-14255 WAKO] solution (3 mg/mL). The body weight of the mice was measured, and the solution was forcibly administered orally and repeatedly at 10 mL/kg once a day for 6 weeks. Then, a novel object recognition test was performed as follows. On the day before acquisition trial, the mice kept in the same cage were put in an observation box in which the illuminance was set to 300 lx, and habituated for 30 min. After the habituation, a compound was orally administered. On the next day, the mice were put, as an acquisition trial, in an observation box in which two same objects were placed, and the number and duration of contacts to the objects were measured for 5 min under 300 lx. A compound was orally administered after the measurement. The day after the acquisition trial, the one object was replaced with a novel object, and the number and duration of contacts to each of the object were measured for 5 min. A metal cylinder and ceramic triangular pyramid were used in this test. A control group (test compound-untreated group) and a control group in wild-type mice were used for comparison. […]

SMILES | inhibition at 1 µM [1] | exploration Rate (%) of Novel Object, duration of contacts [2] | exploration Rate (%) of Novel Object, number of contacts [2]
O=C(c1cnc2c(-c3cnco3)cc(C(F)(F)F)cn12)N1C2CCC1COC2 [Example 85, 3-oxa-8-azabicyclo[3.2.1]oct-8-yl(8-(1,3-oxazol-5-yl)-6-(trifluoromethyl)imidazo[1,2-a]pyridin-3-yl)methanone] | 88% | 61.8% | 54.4%
O=C(c1cnc2c(-n3cncn3)cc(C(F)(F)F)cn12)N1C2CCC1COC2 [Example 142, 3-oxa-8-azabicyclo[3.2.1]oct-8-yl(8-(1H-1,2,4-triazol-1-yl)-6-(trifluoromethyl)imidazo[1,2-a]pyridin-3-yl)methanone] | 87% | – | –
O=C(c1cnc2c(-c3cnco3)cc(C(F)(F)F)cn12)N1CC2(COC2)C1 [Example 22, 2-oxa-6-azaspiro[3.3]hept-6-yl(8-(1,3-oxazol-5-yl)-6-(trifluoromethyl)imidazo[1,2-a]pyridin-3-yl)methanone] | 93% | – | –
Cc1cc(-c2cnco2)c2ncc(C(=O)N3C[C@@H]4C[C@H]3CO4)n2c1 [Example 78, (6-methyl-8-(1,3-oxazol-5-yl)imidazo[1,2-a]pyridin-3-yl)((1S,4S)-2-oxa-5-azabicyclo[2.2.1]hept-5-yl)methanone] | 94% | – | –
O=C(NCc1ccccc1)c1nnc2c(-c3cnco3)cc(C(F)(F)F)cn12 [Example 107, N-benzyl-8-(1,3-oxazol-5-yl)-6-(trifluoromethyl)[1,2,4]triazolo[4,3-a]pyridine-3-carboxamide] | 89% | – | –
O=C(c1cnc2c(-n3cncn3)cc(C(F)(F)F)cn12)N1C2COCC1C2 [Example 156, 3-oxa-6-azabicyclo[3.1.1]hept-6-yl(8-(1H-1,2,4-triazol-1-yl)-6-(trifluoromethyl)imidazo[1,2-a]pyridin-3-yl)methanone] | 94% | – | –
O=C(c1cnc2c(-c3cn[nH]c3)cc(C(F)(F)F)cn12)N1C[C@@H]2C[C@H]1CO2 [Example 134, (1S,4S)-2-oxa-5-azabicyclo[2.2.1]hept-5-yl(8-(1H-pyrazol-4-yl)-6-(trifluoromethyl)imidazo[1,2-a]pyridin-3-yl)methanone] | 71% | – | –
CCNC(=O)c1c(C)nc2c(-c3cnco3)cc(C(F)(F)F)cn12 [Example 98, N-ethyl-2-methyl-8-(1,3-oxazol-5-yl)-6-(trifluoromethyl)imidazo[1,2-a]pyridine-3-carboxamide] | 69% | – | –
O=C(c1cnc2c(-c3cnco3)cc(C(F)(F)F)cn12)N1C2COCC1C2 [Example 86, 3-oxa-6-azabicyclo[3.1.1]hept-6-yl(8-(1,3-oxazol-5-yl)-6-(trifluoromethyl)imidazo[1,2-a]pyridin-3-yl)methanone] | 95% | – | –
Cc1cc(-c2cnco2)n2ncc(C(=O)N3C[C@@H]4C[C@H]3CO4)c2c1 [Example 126, (5-methyl-7-(1,3-oxazol-5-yl)pyrazolo[1,5-a]pyridin-3-yl)((1S,4S)-2-oxa-5-azabicyclo[2.2.1]hept-5-yl)methanone] | 93% | – | –
O=C(c1cnc2c(-c3cnco3)cc(F)cn12)N1C2CCC1COC2 [Example 138, (6-fluoro-8-(1,3-oxazol-5-yl)imidazo[1,2-a]pyridin-3-yl)(3-oxa-8-azabicyclo[3.2.1]oct-8-yl)methanone] | 82% | – | –
N#C[C@H]1CCCN1C(=O)c1cnc2c(-c3cnco3)cc(C(F)(F)F)cn12 [Example 175, (2R)-1-((8-(1,3-oxazol-5-yl)-6-(trifluoromethyl)imidazo[1,2-a]pyridin-3-yl)carbonyl)pyrrolidine-2-carbonitrile] | 80% | – | –
O=C(NC1CCOCC1)c1cnc2c(-c3cnco3)cc(C(F)(F)F)cn12 [Example 44, 8-(1,3-oxazol-5-yl)-N-(tetrahydro-2H-pyran-4-yl)-6-(trifluoromethyl)imidazo[1,2-a]pyridine-3-carboxamide] | 93% | – | –
O=C(c1cnc2c(-c3cnco3)cc(C3CC3)cn12)N1C[C@@H]2C[C@H]1CO2 [Example 116, (6-cyclopropyl-8-(1,3-oxazol-5-yl)imidazo[1,2-a]pyridin-3-yl)((1S,4S)-2-oxa-5-azabicyclo[2.2.1]hept-5-yl)methanone] | 90% | – | –
O=C(c1cnc2c(-c3cnco3)cc(C(F)(F)F)cn12)N1C2COCC1COC2 [Example 176, 3,7-dioxa-9-azabicyclo[3.3.1]non-9-yl(8-(1,3-oxazol-5-yl)-6-(trifluoromethyl)imidazo[1,2-a]pyridin-3-yl)methanone] | 94% | – | –
O=C(c1cnc2c(-c3cnco3)cc(C(F)(F)F)cn12)N1CCOCC1 [Example 16, morpholin-4-yl(8-(1,3-oxazol-5-yl)-6-(trifluoromethyl)imidazo[1,2-a]pyridin-3-yl)methanone] | 87% | – | –
O=C(c1cnc2c(-c3cnco3)cc(C(F)(F)F)cn12)N1CCCC1 [Example 2, (8-(1,3-oxazol-5-yl)-6-(trifluoromethyl)imidazo[1,2-a]pyridin-3-yl)(pyrrolidin-1-yl)methanone] | 89% | – | –
O=C(C1CC1)n1ccc2c(-c3cnco3)cc(C(F)(F)F)cc21 [Example 4, cyclopropyl(4-(1,3-oxazol-5-yl)-6-(trifluoromethyl)-1H-indol-1-yl)methanone] | 88% | – | –
O=C(c1cnc2c(-c3cnco3)cc(C(F)(F)F)cn12)N1C[C@@H]2C[C@H]1CO2 [Example 71, (1S,4S)-2-oxa-5-azabicyclo[2.2.1]hept-5-yl(8-(1,3-oxazol-5-yl)-6-(trifluoromethyl)imidazo[1,2-a]pyridin-3-yl)methanone] | 88% | – | –
